In patent US20230392111A1, “COMPOSITION FOR PROMOTING THE GROWTH OF LACTIC ACID BACTERIA COMPRISING GROWTH FACTORS” (priority 2020, published 2023) one finds viable cell count data, which are given here for 3 molecules.

Common to all, as to assay: Viable cell count after culture in supplemented BL broth
Holding throughout (type): cell-based
Holding throughout (settings): Exp. Ex. 1 carbon source; 2 parts by weight in 100 parts BL broth; 20 hours; pH about 5.0 to 6.5

Test [1] deals with Bifidobacterium bifidum CBT-BF3 (KCTC 12199BP). As for the experimental part: (§1) To promote the growth of non-specific various types of lactic acid bacteria, an optimal mixture composition was determined by culturing each of the following strains using each component, ratio and composition and measuring the viable cell count of each of the strains: Lactobacillus casei CBT-LC5 (accession number: KCTC 12398BP), Lactobacillus plantarum CBT-LP3 (accession number: KCTC 10782BP), Lactobacillus rhamnosus CBT-LR5 (accession number: KCTC 12202BP), Bifidobacterium longum CBT-BG7 (accession number: KCTC 12200BP), Bifidobacterium lactis CBT-BL3 (accession number: KCTC 11904BP), Bifidobacterium bifidum CBT-BF3 (accession number: KCTC 12199BP), Streptococcus thermophilus CBT-ST3 (accession number: KCTC 11870BP), and Pediococcus pentosaceus CBT-SL4 (accession number: KCTC 10297BP). Starter cultures were prepared using BL broth.
(§2) 0.1 to 1 part by weight of each of the starter cultures was inoculated into 100 parts by weight of each prepared medium, and then cultured for 20 hours while the pH was maintained at about 5.0 to 6.5. […] Thus, glucose or fructooligosaccharide was selected as a carbon source for a subsequent experiment (Table 2). […]
(§3) 0.1 to 1 part by weight of each starter culture was inoculated into 100 parts by weight of each of the prepared media, and then cultured for 20 hours while the pH was maintained at about 5.0 to 6.5. […]

Test [2] relates to Bifidobacterium lactis CBT-BL3 (KCTC 11904BP). As for the experimental part: as §1, §2, §3
The subject of test [3] is Bifidobacterium longum CBT-BG7 (KCTC 12200BP). As for the experimental part:
as §1, §2, §3

For test [4], the system named is Lactobacillus casei CBT-LC5 (KCTC 12398BP). Here is the method:
as §1, §2, §3

Test [5] deals with Lactobacillus plantarum CBT-LP3 (KCTC 10782BP). Here is the method: as §1, §2, §3
The subject of test [6] is Lactobacillus rhamnosus CBT-LR5 (KCTC 12202BP). As for the experimental part: as §1, §2, §3
The subject of test [7] is Pediococcus pentosaceus CBT-SL4 (KCTC 10297BP). Here is the method:
as §1, §2, §3

Test [8] concerns Streptococcus thermophilus CBT-ST3 (KCTC 11870BP). As for the experimental part:
as §1, §2, §3

For the molecule `O=C(CO)[C@@H](O)[C@H](O)[C@H](O)CO` [Fructose], the viable cell count is given as 434 ×10^7 cfu/ml in test [1]; 522 ×10^7 cfu/ml in test [2]; 405 ×10^7 cfu/ml in test [3]; 408 ×10^7 cfu/ml in test [4]; 452 ×10^7 cfu/ml in test [5]; 486 ×10^7 cfu/ml in test [6]. Moreover, the viable cell count is 550 ×10^7 cfu/ml in test [7] and 402 ×10^7 cfu/ml in test [8].

As to `OC[C@H]1O[C@@H](O[C@H]2[C@H](O)[C@@H](O)C(O)O[C@@H]2CO)[C@H](O)[C@@H](O)[C@H]1O` (stereo partly drawn) [Lactose], the viable cell count in test [1] is 460 ×10^7 cfu/ml; in test [2], 420 ×10^7 cfu/ml; in test [3], 456 ×10^7 cfu/ml; in test [4], 405 ×10^7 cfu/ml; in test [5] it was 550 ×10^7 cfu/ml; in test [6], 405 ×10^7 cfu/ml. Further, the viable cell count in test [7] is 520 ×10^7 cfu/ml; in test [8] it was 450 ×10^7 cfu/ml.

For the molecule `OC[C@H]1O[C@@](CO)(O[C@H]2O[C@H](CO)[C@@H](O)[C@H](O)[C@H]2O)[C@@H](O)[C@@H]1O` [Refined sugar], the viable cell count in test [1] is 325 ×10^7 cfu/ml; in test [2] it was 472 ×10^7 cfu/ml; in test [3], 464 ×10^7 cfu/ml; in test [4], 482 ×10^7 cfu/ml; in test [5] it was 427 ×10^7 cfu/ml; in test [6], 425 ×10^7 cfu/ml. Also, the viable cell count in test [7] was 580 ×10^7 cfu/ml; in test [8], 504 ×10^7 cfu/ml.
